Source: BigSolDB 2.1

COC(=O)NCCCCCCNC(=O)OC
solubility (mole fraction)
Conditions	298.15 K	300.15 K	303.15 K	308.15 K	313.15 K	318.15 K	323.15 K	328.15 K	333.15 K
in dimethyl carbonate	0.00596	0.00689	0.00839	0.0117	0.0161	0.0207	0.026	0.0338	0.042
in ethanol	0.0155	0.0179	0.0205	0.0279	0.0355	0.0463	0.0625	0.0769	0.0987
in ethyl acetate	0.00814	0.00976	0.0124	0.0176	0.0233	0.029	0.0369	0.0445	0.0536
in toluene	0.00731	0.00912	0.0111	0.0167	0.0232	0.0353	0.0462	0.0614	0.0824
in water	6.21e-05	6.92e-05	7.91e-05	0.000106	0.000146	0.000185	0.00025	0.000339	0.000439
